“Also recorded” adds a separate entry of the source.
Assays:
[1] = molecular target: T1, LSS (Rattus norvegicus, UniProt P48450); settings: cited from earlier work
T1 sequence (P48450 1-733): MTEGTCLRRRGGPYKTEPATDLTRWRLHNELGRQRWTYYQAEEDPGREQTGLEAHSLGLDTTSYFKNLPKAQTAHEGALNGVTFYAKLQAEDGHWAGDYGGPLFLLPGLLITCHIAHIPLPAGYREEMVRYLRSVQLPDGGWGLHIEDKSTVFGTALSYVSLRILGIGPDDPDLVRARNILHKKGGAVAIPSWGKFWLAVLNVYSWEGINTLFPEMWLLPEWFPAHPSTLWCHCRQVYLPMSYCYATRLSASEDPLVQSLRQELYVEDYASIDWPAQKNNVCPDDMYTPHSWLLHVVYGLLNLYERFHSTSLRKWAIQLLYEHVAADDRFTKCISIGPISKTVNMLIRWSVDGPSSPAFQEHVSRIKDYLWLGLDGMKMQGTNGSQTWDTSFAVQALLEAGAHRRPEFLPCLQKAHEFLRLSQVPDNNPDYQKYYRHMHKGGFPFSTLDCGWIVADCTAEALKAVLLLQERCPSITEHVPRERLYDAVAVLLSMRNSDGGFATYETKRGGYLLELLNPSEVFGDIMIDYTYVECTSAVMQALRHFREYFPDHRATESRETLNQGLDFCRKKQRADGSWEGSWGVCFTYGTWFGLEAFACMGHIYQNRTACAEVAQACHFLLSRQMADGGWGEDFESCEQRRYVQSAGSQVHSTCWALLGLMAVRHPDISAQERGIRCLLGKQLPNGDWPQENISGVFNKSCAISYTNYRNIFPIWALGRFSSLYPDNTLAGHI

[2] = system: cataract-causing mutant crystallin proteins; assay: Intracellular aggregation of mutant crystallins in transfected human lens progenitor cells; format: cell-based
Procedure: To assess the effect of lanosterol on crystallin aggregation, human lens progenitor cells were co-transfected with LSS and various crystallin constructs for 4 h. Cells co-transfected with crystallin mutants and pcDNA3.1-N-Flag were used as a control. Human lens progenitor cells co-transfected with LSS and crystallin mutant constructs were cultured for 12 h before assaying for aggregates. The rescue experiments were performed after 16 h by addition of 40 mM sterols (lanosterol or cholesterol, Sigma-Aldrich) to the cell culture medium for 2 h, which was then replaced with fresh culture medium and cells cultured for 24 h. The percentage of cells with crystallin aggregates was calculated from ten randomly selected viewing fields. The values of the wild-type LSS group, mutant group, and mutant plus lanosterol group were calculated. Cells treated with 1% DMSO were used as the controls.
The impact of LSS and lanosterol on intracellular crystallin aggregation were evaluated in single-blinded observer studies. Experiments have been repeated at least three times. P values were calculated using Student's t-tests. Fluorescence microscopy. Equal amounts of the human lens progenitor cells, HLEB-3 cells or HeLa cells were seeded on glass coverslips pretreated with TC (Solarbio). After culturing for 24 h to reach 90% confluency, the cells were transfected with plasmids containing various LSS or crystallin genes or co-transfected with plasmids containing a certain crystallin gene and those containing the wild-type or mutated LSS gene. The controls were cells transfected with the plasmids containing peGFP-N1 and/or peDNA3.1-N-Flag. Both transfection and co-transfection were performed using Lipofectamine 3000 (Invitrogen) according to the instructions from the manufacturer.
The effect of lanosterol or cholesterol on the aggresome formation of various crystallins was studied by transfecting the cells with plasmids containing various crystallin genes. The cells were incubated for 24 h to enable efficient protein expression and aggresome formation. The cells were then treated with 0-40 mM sterols in 1% (for human lens progenitor cells) or 2% DMSO (for HeLa cells). Cells treated with 1% or 2% DMSO were used as the control. After treatment for 2 h, the media was replaced with fresh media. After 12 h, the cells were used for microscopy analysis.
The microscopy samples were prepared by washing the slips with phosphate buffered saline (PBS) three times. The cells were fixed with 4% paraformaldehyde for 40 min followed by another three washes with PBS. The cells were permeabilized with 0.1% Triton X-100 (Sigma) in PBS for 10 min and blocked with 5% normal goat serum in PBS for 1 h at 37° C. […] The mounted cells were analysed using a Carl Zeiss LSM 710 confocal microscope.

[3] = molecular target: T2, αA-crystallin (Y118D) aggregates (Homo sapiens, UniProt P02489, Y118D); assay: Serial live-cell imaging, single-particle tracking of aggregates; format: cell-based; settings: human lens progenitor cells; 40 mM sterol in 1% DMSO for 4 h
T2 construct: expressed in transfected cells; host or cells: human lens progenitor cells, G418-selected
T2 sequence (P02489 1-173 Y118D): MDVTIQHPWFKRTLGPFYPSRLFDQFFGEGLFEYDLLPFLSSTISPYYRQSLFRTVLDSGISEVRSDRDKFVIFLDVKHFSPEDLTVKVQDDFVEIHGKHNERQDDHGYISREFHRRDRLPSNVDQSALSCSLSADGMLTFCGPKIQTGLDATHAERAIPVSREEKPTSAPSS
Procedure: Live-cell imaging. Human lens progenitor cells were transfected with plasmids containing αA-crystallin (Y118D) mutant. After a 24 h transfection period, the cells with stable expression of αA-crystallin (Y118D) mutant were screen by incubation in culture medium containing 0.8 mg ml^−1 G418 for 7 days. Then the obtained cells were seeded onto glass bottom cell culture dishes (In Vitro Scientific) and treated with 1% DMSO, 40 mM cholesterol in 1% DMSO or 40 mM lanosterol in 1% DMSO for 4 h. Fresh culture medium was added, and the cells were analysed by serial live-cell imaging. Live-cell images were viewed with an Olympus IX81 microscope and captured with CellSens Dimension soft-ware (Olympus). Quantitative analysis of the size of aggregates was performed by measuring the fluorescence intensity of p62-positive aggregates using single-par-tide tracking in live-cell imaging. The live-cell imaging was conducted using three biological replicates with 1-8 repetitions each.

[4] = system: cataract-causing mutant crystallin proteins; assay: Intracellular aggregation of mutant crystallins in HLEB-3 cells; format: cell-based, human; settings: HLEB-3 cells co-transfected with LSS and crystallin mutant; 40 μM sterols 2 h, then 12 h; lanosterol P<1×10^−4, cholesterol P>0.1
Procedure: (§1) FIG. 9A, FIG. 9B, and FIG. 9C show inhibition of crystallin mutant aggregation by wild-type LSS and lanosterol in HLEB-3 cells (FIG. 9A) or HeLa cells (FIG. 9B). Cells co-transfected with LSS and crystallin mutant constructs were cultured for 24 h before assaying for aggregates. The rescue experiments were performed by addition of 40 […] μM sterols (lanosterol or cholesterol) to the cell culture medium for 2 h, the sterol medium was then replaced with fresh culture medium and the cells were cultured for a further 12 h. The percentage of cells with crystallin aggregates were calculated from ten randomly selected viewing fields. The values of the wild-type LSS group, mutant group, or mutant plus lanosterol group were calculated. […] After transfection for 4 h and incubation in fresh culture medium for another 24 h, the cells were lysed and centrifuged to separate supernatant and insoluble fractions. LSS and crystallin fusion proteins were detected by antibodies against Flag and GFP, respectively. Red arrows indicate higher crystalline content in the soluble fraction versus in the insoluble fraction in cells containing the WT-LSS.
(§2) Cells were transfected with various crystallin constructs for 4 h and cultured for an additional 24 h in fresh culture medium. Then the cells were treated with 10, 20 and 40 μM lanosterol in 1% (HLEB-3 cells) or 2% DMSO (HeLa cells) for 2 h and cultured for another 12 h. Cells treated with 1% (HLEB-3 cells) or 2% DMSO (HeLa cells) were used as the controls. Formation of intracellular aggregates of various crystallin proteins was visualized by fluorescence of GFP (green) and the nuclei were stained with Hoechst 33342 (blue). Typical intracellular aggregates are indicated by arrows.
(§3) The impact of LSS and lanosterol on intracellular crystallin aggregation were evaluated in single-blinded observer studies. Experiments have been repeated at least three times. P values were calculated using Student's t-tests. Fluorescence microscopy. […]

[5] = system: amyloid-like fibrils of crystallin proteins; assay: Re-dissolution of pre-formed amyloid-like fibrils (ThT fluorescence, TEM, turbidity); format: biochemical, human; settings: 0.2 mg/ml aggregates; 500 μM sterols in 500 μM DPPC liposome (b129 prints 500 mM), 37° C., 24 h; TEM and ThT fluorescence; concentration-dependent
Procedure: Crystallin aggregates were formed by incubating 5 mg ml^−1 protein solution at 60° C. for 2 h (α-crystallins) or 37° C. for 48 h (β- and γ-crystallins) in the presence of 1 M guanidine chloride. The preformed aggregates were re-suspended in PBS at a final protein concentration of 0.2 mg ml^−1 and were treated with 500 μM sterols in 500 μM DPPC liposome and incubated at 37° C. for 24 h. Aggregates treated with 500 μM DPPC liposome only were used as the controls. […] Aggregates treated with 500 μM DPPC liposome only were used as the controls.
All protein samples were prepared in 20 mM PBS buffer containing 150 mM NaCl, 1 mM EDTA and 1 mM DTT.
Protein aggregation and aggregate dissociation. The aggregates of the wild-type and mutated αA- and αB-crystallin proteins were obtained by heating the protein solutions containing 1 M guanidine chloride (ultrapure, Sigma-Aldrich) at a con-centration of 5 mg/ml at 60° C. for 2 h. The aggregates of the wild-type and mutated b- and c-crystallins were prepared by heating the protein solutions containing 1 M guanidine chloride at 37° C. for 48 h. The formation of aggregates was confirmed by ThT fluorescence, turbidity (absorbance at 400 nm) and transmission electron microscopy (TEM) observations. […] After 24 h of treatment, the protein solutions were used for ThT fluorescence, turbidity and negatively stained TEM observations. […]

[6] = system: cataract-causing mutant crystallin proteins; assay: Intracellular aggregation of mutant crystallins in HeLa cells; format: cell-based, human; settings: HeLa cells co-transfected with LSS and crystallin mutant; 40 μM sterols 2 h, then 12 h; lanosterol P<1×10^−4, cholesterol P>0.1
Procedure: as §1, §2, §3

Row | SMILES | cataract formation by inhibition of LSS [1] | intracellular aggregation / aggresome formation of crystallin proteins ([2]; 0-40 mM sterols in 1% DMSO for 2 h, then 12 h, concentration-dependent, n=3, lanosterol P<1×10^−4, cholesterol P>0.1) | crystallin aggregation in cells co-expressing an LSS mutant and a mutant crystallin (rescue by sterol) ([2]; 40 mM sterols in culture medium for 2 h, then fresh medium 24 h) | effect on αA-crystallin (Y118D) aggregates in live cells [3] | percentage of cells with crystallin aggregates versus control group (rescue) [4] | re-dissolution of aggregated crystallin proteins from amyloid-like fibrils [5] | percentage of cells with crystallin aggregates versus control group (rescue) [6]
1 | CCN(CC)CCO[C@H]1CC[C@@]2(C)C(=CC[C@@H]3[C@@H]2CC[C@]2(C)C(=O)CC[C@@H]32)C1 [U18666A] | cause cataracts |  |  |  |  |  | 
2 | CC(C)CCC[C@@H](C)[C@H]1CC[C@H]2[C@@H]3CC=C4C[C@@H](O)CC[C@]4(C)[C@H]3CC[C@]12C [cholesterol, reference compound] |  | had no effect; also recorded: did not reduce intracellular aggregation | but not cholesterol | did not reduce aggresome formation | showed no difference to the control group | but not cholesterol | showed no difference to the control group

Reference: patent publication US10471076B2, “Compositions and methods to treat vision disorders” (YouHealth Biotech, Limited, priority 2014, dated 2019)
